Like-named read-outs stand apart in the source and are kept apart here.
How the values were obtained:
[1] = biological target: T1, human 5-HT1A receptor subtype (5-HT1A.CHO cells) (Homo sapiens, UniProt P08908); assay: cAMP formation in forskolin-treated cells (cAMP SPA assay); type: cell-based; settings: value in brackets; forskolin 1 uM
T1 construct: expressed in transfected cells
T1 sequence (P08908 1-422): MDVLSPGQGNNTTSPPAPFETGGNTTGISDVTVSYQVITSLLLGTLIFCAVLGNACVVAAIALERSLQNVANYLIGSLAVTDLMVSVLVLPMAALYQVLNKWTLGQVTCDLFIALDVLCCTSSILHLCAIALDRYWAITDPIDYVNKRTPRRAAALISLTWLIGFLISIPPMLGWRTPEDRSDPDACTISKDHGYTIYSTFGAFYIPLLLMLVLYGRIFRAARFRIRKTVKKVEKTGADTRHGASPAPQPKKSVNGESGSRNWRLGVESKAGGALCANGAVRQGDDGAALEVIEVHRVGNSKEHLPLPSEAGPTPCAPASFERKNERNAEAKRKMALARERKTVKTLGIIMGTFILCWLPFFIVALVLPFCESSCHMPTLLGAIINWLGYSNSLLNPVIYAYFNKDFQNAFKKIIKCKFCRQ
Experimental: (§1) The PCR cloning of the human 5-HT1A receptor subtype from a human genomic library has been described previously Chanda et al., Mol. Pharmacol., 43:516 (1993). A stable Chinese hamster ovary cell line expressing the human 5-HT1A receptor subtype (5-HT1A.CHO cells) was employed throughout this study. Cells were maintained in DMEM supplemented with 10% foetal calf serum, non-essential amino acids and penicillin/ streptomycin.
The following assays were performed by incubating the cells with DMEM containing 25 mM HEPES, 5 mM theophylline and 10 µM pargyline for a period of 20 minutes at 37°C. Functional activity was assessed by treating the cells with forskolin (1 uM final concentration) followed immediately by test compound (6 concentrations) for an additional 10 minutes at 37°C. In separate experiments, 6 concentrations of antagonist were preincubated for 20 minutes prior to the addition of 10 nM 8-OH-DPAT and forskolin. The reaction was terminated by removal of the media and addition of 0.5 ml ice cold assay buffer. Plates were stored at -20°C prior to assessment of cAMP formation by a cAMP SPA assay (Amersham).

[2] = biological target: T2, 5-HT1A cloned receptor membrane fragments (Homo sapiens, UniProt P08908); assay: [35S]-GTPγS binding assay; type: biochemical; settings: value in brackets, or a lone % in the cell; maximum agonist response defined by excess 8-OH-DPAT; read-out: GTPγS (%EMax)
T2 construct: expressed in transfected cells
T2 sequence (P08908 1-422): T1 sequence (P08908 1-422)
Experimental: The [^35S]-GTPγS binding assay was similar to that used by Lazareno and Birdsall, Br. J. Pharmacol. 109:1120 (1993). Briefly, 5-HT1A cloned receptor membrane fragments (as used for 5-HT1A receptor binding assays) were stored at -70°C until needed. When needed, membranes were rapidly thawed, centrifuged at 40,000 x g for 10 minutes and resuspended at 4 °C for 10 minutes in assay buffer (25 mM HEPES, 3 mM MgCl2, 100 mM NaCl, 1 mM EDTA, 10 uM GDP, […], pH 8.0). These membranes were then incubated for 30 minutes at 30°C with [^35S]GTPgS (1 nM) in the presence of vehicle, test compound (one to eight concentrations), or excess 8-OH-DPAT to define maximum agonist response. All reactions are terminated by the addition of ice cold Tris buffer followed by rapid filtration using a Tom Tech® filtration device to separate bound from free [^35S]GTPgS. Agonists produce an increase in the amount of [^35S]GTPgS bound whereas antagonists produce no increase in binding. Bound radioactivity was counted and analyzed as above.

[3] = biological target: T3, serotonin transporter (Rattus norvegicus, UniProt P31652); assay: Serotonin transporter affinity, 3H-paroxetine binding to frontal cortical membranes; set-up: species or system male Sprague-Dawley rats
T3 construct: from tissue; host or cells: frontal cortex of male Sprague-Dawley rats
Experimental: Briefly, frontal cortical membranes prepared from male Sprague-Dawley rats were incubated with ^3H-paroxetine (0.1 nM) for 60 minutes at 25°C. […] All reactions are terminated by the addition of ice cold Tris buffer followed by rapid filtration using a Tom Tech filtration device to separate bound from free ^3H-paroxetine.

[4] = biological target: T4, human 5-HT1A receptor subtype (Homo sapiens, UniProt P08908); assay: 5-HT1A receptor binding assay with [3H]8-OH-DPAT on CHO cell membranes; settings: [3H]8-OH-DPAT 1.5 nM
T4 construct: expressed in transfected cells
T4 sequence (P08908 1-422): T1 sequence (P08908 1-422)
Experimental: as §1
Cells were grown to 95-100% confluency as a monolayer before membranes were harvested for binding studies. Cells were gently scraped from the culture plates, transferred to centrifuge tubes, and washed twice by centrifugation (2000 rpm for 10 min., 4°C) in buffer (50 mM Tris; pH 7.5). The resulting pellets were aliquoted and placed at -80°C. On the day of assay, the cells were thawed on ice, and resuspended in buffer. Studies were conducted using [^3H]8-OH-DPAT as the radioligand. The binding assay was performed in 96 well microtiter plates in a final total volume of 250 µL of buffer. Competition experiments were performed by using 7 concentrations of unlabelled drug and a final ligand concentration of 1.5 nM. Nonspecific binding was determined in the presence of 10 µM 5HT. Saturation analysis was conducted by using [^3H]8-OH-DPAT at concentrations ranging from 0.3-30 nM. Following a 30 minute incubation at room temperature, the reaction was terminated by the addition of ice cold buffer and rapid filtration using a M-96 Brandel Cell Harvester (Gaithersburg, MD) through a GF/B filter presoaked for 30 minutes in 0.5% polyethyleneimine.

[5] = 3H-paroxetine 0.1 nM, rat frontal cortical membranes, read-out: ST (Kj, nM,)

T3 sequence (P31652 whole entry): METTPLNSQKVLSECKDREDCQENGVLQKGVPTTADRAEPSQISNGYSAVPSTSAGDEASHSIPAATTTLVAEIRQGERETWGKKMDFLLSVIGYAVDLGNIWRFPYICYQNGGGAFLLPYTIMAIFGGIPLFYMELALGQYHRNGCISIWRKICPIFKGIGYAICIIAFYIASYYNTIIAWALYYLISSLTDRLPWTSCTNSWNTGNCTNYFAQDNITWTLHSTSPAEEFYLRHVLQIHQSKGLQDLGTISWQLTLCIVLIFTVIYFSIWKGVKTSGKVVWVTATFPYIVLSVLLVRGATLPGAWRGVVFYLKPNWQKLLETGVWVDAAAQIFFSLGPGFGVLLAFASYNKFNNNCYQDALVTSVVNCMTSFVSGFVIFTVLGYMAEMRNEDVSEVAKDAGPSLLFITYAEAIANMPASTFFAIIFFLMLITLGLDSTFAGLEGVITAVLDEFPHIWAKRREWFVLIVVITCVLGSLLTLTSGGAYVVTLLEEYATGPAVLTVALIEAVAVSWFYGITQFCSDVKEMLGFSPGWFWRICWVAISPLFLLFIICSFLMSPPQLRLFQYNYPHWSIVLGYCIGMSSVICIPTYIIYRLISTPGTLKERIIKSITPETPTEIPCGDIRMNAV

SMILES | Emax [1] [%] | Emax [2] [%] | Ki [3, 5] [nM] | Ki [4] [nM] | Ki [3] [nM]
Cn1ccc2c(N3CCN([C@H]4CC[C@@H](c5cn(C)c6cc(F)ccc65)CC4)CC3)cccc21 [Example 11, 6-Fluoro-1-methyl-3-{cis-4-[4-(1-methyl-1H-indol-4-yl)-1-piperazinyl]cyclohexyl}-1H-indole] |  |  | 40 |  | 
COc1ccccc1N1CCN([C@H]2CC[C@@H](c3c[nH]c4ccc(F)cc43)CC2)CC1 [Example 18, 5-Fluoro-3-{(cis)-4-[4-(2-methoxy-phenyl)-piperazin-1-yl] -cyclohexyl}-1H-indole] |  |  | 1.36 | 129 | 
Fc1cc2c(c(N3CCN([C@H]4CC[C@@H](c5c[nH]c6ccc(F)cc65)CC4)CC3)c1)OCCC2 [Example 31a, 5-Fluoro-3-{(1,4-cis)-4-[4-(6-fluoro-chroman-8-yl)-piperazin-1-yl]-cyclohexyl}-1H-indole] |  |  |  | 142 | 13
COc1ccccc1N1CCN(C2CC=C(c3c[nH]c4ccc(F)cc34)CC2)CC1 (stereo not drawn) [Example 35, 5-Fluoro-3-{4-[4-(2-methoxy-phenyl)-piperazin-1-yl]cyclohex-1-enyl}-1H-indole] |  |  | 91 | 70.1 | 
N#Cc1ccc2[nH]cc(C3=CCC(N4CCN(c5cccc6[nH]ccc56)CC4)CC3)c2c1 (stereo not drawn) [Example 36, 3-{4-[4-(1H-Indol-4-yl)-piperazin-1-yl]-cyclohex-1-enyl}-1H-indole-5-carbonitrile] | 80 | 53 | 28 | 12.3 | 
Cn1cc([C@H]2CC[C@@H](N3CCN(c4cccc5[nH]ccc45)CC3)CC2)c2cc(F)ccc21 [Example 38, 5-Fluoro-3-{cis-4-[4-(1H-indol-4-yl)-piperazinyl]-cyclohexyl}-1-methyl-1H-indole] |  |  |  |  | 7.22

More lines, main results first:

Emax [1] [%] | Emax [2] [%] | Ki [3, 5] [nM] | Ki [4] [nM] | SMILES | Ki [3] [nM]
80 | 53 | 28 | 326 | Clc1ccc2[nH]cc([C@H]3CC[C@@H](N4CCN(c5cccc6[nH]ccc56)CC4)CC3)c2c1 [Example 6a, 5-Chloro-3-[cis-4-[4-(1H-indol-4-yl)-1-piperazinyl]cyclohexyl]-1H-indole] | 
0 | 0 | 4.96 | 80.7 | COc1ccc(F)cc1N1CCN([C@H]2CC[C@@H](c3c[nH]c4ccc(F)cc43)CC2)CC1 [Example 22a, 5-Fluoro-3-{(cis)-4-[4-(5-fluoro-2-methoxy-phenyl)-piperazin-1-yl]-cyclohexyl}-1H-indole] | 
0 | 4.5 | 36.5 | 11.6 | COc1ccc(F)cc1N1CCN([C@H]2CC[C@H](c3c[nH]c4ccc(F)cc43)CC2)CC1 [Example 22b, 5-Fluoro-3-{(trans)-4-[4-(5-fluoro-2-methoxy-phenyl)-piperazin-1-yl]-cyclohexyl}-1H-indole] | 

From patent EP1147083B1, “ARYLPIPERAZINYL-CYCLOHEXYL INDOLE DERIVATIVES FOR THE TREATMENT OF DEPRESSION” (Wyeth, priority 1999, dated 2000)
